Measured values as given in doi:10.1101/2024.08.19.608619, “Discovery of potent SARS-CoV-2 nsp3 macrodomain inhibitors uncovers lack of translation to cellular antiviral response” (bioRxiv, 2024).
Where two headings read alike, the source gives them in different places.

Experiments:
Assay in all cases: biochemical
Set-up in all cases: In vitro kinase panel profiling, per cent remaining kinase activity at 10 uM
CK1γ1(h) = target: T1, CK1γ1(h) (Homo sapiens, UniProt Q9HCP0); details: atp_concentration=15, read-out: % of control remaining
T1 construct: gene CSNK1G1
Text: (§1) We derisk potential for off-target activity by profiling the compound in a CEREP panel, a standard secondary pharmacology assessment, as well as a kinase panel to derisk a potential hinge-binding motif in our leads, and a PARP panel to derisk activity against human […]. Reassuringly, the compounds are selective, with the only off-targets being moderate human CHRM2 and KOR receptors activity associated with ASAP-0011198.

SRPK1(h) = SRPK1(h) (Homo sapiens, UniProt Q96SB4); details: atp_concentration=10, read-out: % of control remaining
Text: as §1

PDGFRβ(h) = target: T2, PDGFRβ(h) (Homo sapiens, UniProt P09619); details: atp_concentration=200, read-out: % of control remaining
T2 construct: gene PDGFRB
Text: as §1

CK2α2(h) = target: T3, CK2α2(h) (Homo sapiens, UniProt P19784); details: atp_concentration=10, read-out: % of control remaining
T3 construct: gene CSNK2A2
Text: as §1

PKG1α(h) = target: T4, PKG1α(h) (Homo sapiens, UniProt Q13976); details: atp_concentration=90, read-out: % of control remaining
T4 construct: gene PRKG1; isoform alpha
T4 sequence (Q13976 1-671): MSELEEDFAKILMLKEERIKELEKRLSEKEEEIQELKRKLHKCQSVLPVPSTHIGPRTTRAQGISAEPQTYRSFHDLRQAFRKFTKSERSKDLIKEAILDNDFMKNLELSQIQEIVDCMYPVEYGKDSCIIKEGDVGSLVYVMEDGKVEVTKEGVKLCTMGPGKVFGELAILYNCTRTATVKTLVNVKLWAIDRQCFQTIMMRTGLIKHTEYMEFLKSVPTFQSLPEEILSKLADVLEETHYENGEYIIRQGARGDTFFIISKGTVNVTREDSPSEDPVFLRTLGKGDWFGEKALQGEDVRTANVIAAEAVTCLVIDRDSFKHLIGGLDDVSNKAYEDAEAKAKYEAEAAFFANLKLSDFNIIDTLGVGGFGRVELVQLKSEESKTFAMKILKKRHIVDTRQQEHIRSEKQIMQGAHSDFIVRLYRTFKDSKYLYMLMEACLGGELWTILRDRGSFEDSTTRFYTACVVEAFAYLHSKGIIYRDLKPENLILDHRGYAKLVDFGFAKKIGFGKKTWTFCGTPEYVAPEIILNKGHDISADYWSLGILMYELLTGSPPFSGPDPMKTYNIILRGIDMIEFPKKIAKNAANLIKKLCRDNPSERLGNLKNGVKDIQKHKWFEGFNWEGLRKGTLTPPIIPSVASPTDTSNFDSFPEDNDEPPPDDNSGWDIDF
Text: as §1

Pim-1(h) = target: T5, Pim-1(h) (Homo sapiens, UniProt P11309); details: atp_concentration=90, read-out: % of control remaining
T5 construct: gene PIM1
Text: as §1

IRAK4(h) = target: T6, IRAK4(h) (Homo sapiens, UniProt Q9NWZ3); details: atp_concentration=200, read-out: % of control remaining
T6 sequence (Q9NWZ3 1-460): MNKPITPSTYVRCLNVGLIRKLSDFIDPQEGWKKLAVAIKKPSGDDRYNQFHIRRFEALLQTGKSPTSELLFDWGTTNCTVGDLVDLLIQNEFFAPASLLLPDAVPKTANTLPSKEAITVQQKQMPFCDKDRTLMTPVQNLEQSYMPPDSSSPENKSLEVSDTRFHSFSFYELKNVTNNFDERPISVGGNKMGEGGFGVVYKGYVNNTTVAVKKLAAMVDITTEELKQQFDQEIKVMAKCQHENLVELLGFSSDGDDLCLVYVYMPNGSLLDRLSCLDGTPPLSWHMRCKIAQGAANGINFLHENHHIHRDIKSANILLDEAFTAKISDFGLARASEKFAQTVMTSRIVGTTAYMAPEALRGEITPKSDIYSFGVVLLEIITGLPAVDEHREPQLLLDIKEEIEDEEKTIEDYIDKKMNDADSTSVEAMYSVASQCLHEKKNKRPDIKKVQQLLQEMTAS
Text: as §1

MEK1(h) = target: T7, MEK1(h) (Homo sapiens, UniProt Q02750); details: atp_concentration=10, read-out: % of control remaining
T7 construct: gene MAP2K1
Text: as §1

Aurora-A(h) = target: T8, Aurora-A(h) (Homo sapiens, UniProt O14965); details: atp_concentration=15, read-out: % of control remaining
T8 construct: gene AURKA
T8 sequence (O14965 1-403): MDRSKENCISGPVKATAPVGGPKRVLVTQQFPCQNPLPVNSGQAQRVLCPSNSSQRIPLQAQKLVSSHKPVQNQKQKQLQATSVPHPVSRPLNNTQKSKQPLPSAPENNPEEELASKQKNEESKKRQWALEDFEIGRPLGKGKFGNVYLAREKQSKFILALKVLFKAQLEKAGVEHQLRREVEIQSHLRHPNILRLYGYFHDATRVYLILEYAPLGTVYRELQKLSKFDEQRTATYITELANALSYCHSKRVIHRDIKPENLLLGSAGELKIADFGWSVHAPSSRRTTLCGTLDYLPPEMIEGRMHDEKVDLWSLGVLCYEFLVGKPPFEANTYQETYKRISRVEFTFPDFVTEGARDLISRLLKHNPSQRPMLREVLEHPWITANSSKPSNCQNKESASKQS
Text: as §1

EphA5(h) = EphA5(h) (Homo sapiens, UniProt P54756); details: atp_concentration=10, read-out: % of control remaining
Text: as §1

PAK2(h) = PAK2(h) (Homo sapiens, UniProt Q13177); details: atp_concentration=90, read-out: % of control remaining
Text: as §1

T7 sequence (Q02750 whole entry): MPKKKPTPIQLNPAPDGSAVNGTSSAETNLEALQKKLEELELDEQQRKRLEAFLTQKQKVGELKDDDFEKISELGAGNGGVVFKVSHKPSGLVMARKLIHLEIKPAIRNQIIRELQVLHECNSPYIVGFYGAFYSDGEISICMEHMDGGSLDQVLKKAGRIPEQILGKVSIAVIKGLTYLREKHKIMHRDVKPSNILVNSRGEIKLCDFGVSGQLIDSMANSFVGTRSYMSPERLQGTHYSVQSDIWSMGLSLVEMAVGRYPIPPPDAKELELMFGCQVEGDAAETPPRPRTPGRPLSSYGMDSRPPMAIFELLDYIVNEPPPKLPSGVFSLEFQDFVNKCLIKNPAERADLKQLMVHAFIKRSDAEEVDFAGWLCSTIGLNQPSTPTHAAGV
T5 sequence (P11309 whole entry): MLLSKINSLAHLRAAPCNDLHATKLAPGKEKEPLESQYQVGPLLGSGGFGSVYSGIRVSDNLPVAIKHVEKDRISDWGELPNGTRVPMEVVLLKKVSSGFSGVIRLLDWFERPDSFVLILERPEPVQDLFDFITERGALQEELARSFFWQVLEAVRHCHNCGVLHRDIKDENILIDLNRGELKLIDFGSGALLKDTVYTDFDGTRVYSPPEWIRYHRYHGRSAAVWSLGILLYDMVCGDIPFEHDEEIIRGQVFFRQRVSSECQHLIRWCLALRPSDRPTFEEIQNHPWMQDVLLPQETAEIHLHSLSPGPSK
Chain of EphA5(h) (P54756 whole entry): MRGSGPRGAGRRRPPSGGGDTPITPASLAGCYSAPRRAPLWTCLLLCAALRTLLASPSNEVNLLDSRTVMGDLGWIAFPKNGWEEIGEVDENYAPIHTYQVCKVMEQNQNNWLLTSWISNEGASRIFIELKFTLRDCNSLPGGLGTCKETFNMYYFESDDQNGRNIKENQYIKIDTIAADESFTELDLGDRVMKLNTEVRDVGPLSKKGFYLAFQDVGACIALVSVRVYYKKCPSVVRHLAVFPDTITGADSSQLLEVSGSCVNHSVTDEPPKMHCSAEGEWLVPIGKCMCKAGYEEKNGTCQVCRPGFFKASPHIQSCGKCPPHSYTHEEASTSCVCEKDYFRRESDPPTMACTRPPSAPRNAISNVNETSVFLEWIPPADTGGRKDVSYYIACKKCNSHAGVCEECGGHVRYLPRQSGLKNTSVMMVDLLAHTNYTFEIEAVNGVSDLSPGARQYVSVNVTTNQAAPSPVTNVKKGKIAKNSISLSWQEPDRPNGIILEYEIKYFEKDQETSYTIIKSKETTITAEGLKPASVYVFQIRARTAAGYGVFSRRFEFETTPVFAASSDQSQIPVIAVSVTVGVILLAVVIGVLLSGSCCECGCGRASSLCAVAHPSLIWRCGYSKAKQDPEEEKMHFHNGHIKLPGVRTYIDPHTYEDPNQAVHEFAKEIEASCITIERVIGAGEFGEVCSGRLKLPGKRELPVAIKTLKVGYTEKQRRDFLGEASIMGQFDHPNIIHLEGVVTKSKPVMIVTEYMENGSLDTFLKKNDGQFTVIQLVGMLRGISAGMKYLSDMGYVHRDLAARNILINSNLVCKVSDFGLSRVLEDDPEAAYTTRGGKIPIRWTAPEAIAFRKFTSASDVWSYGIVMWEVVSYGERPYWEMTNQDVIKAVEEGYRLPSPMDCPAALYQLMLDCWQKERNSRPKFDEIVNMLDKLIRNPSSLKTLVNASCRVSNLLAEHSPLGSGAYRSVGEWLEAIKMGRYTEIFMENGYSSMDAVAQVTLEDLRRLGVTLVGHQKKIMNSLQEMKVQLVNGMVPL
T1 sequence (Q9HCP0 whole entry): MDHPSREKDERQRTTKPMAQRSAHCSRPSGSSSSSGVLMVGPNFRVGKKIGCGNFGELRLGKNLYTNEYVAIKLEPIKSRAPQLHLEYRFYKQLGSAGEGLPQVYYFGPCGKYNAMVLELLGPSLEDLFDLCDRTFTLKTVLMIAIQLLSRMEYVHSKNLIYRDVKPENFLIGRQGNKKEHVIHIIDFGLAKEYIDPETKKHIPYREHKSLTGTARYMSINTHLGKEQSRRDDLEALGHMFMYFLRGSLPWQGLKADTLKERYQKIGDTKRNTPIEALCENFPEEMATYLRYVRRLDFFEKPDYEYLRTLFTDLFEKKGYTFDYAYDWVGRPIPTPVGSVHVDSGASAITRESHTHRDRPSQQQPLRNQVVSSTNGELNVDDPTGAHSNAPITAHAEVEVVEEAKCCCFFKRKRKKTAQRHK
T2 sequence (P09619 whole entry): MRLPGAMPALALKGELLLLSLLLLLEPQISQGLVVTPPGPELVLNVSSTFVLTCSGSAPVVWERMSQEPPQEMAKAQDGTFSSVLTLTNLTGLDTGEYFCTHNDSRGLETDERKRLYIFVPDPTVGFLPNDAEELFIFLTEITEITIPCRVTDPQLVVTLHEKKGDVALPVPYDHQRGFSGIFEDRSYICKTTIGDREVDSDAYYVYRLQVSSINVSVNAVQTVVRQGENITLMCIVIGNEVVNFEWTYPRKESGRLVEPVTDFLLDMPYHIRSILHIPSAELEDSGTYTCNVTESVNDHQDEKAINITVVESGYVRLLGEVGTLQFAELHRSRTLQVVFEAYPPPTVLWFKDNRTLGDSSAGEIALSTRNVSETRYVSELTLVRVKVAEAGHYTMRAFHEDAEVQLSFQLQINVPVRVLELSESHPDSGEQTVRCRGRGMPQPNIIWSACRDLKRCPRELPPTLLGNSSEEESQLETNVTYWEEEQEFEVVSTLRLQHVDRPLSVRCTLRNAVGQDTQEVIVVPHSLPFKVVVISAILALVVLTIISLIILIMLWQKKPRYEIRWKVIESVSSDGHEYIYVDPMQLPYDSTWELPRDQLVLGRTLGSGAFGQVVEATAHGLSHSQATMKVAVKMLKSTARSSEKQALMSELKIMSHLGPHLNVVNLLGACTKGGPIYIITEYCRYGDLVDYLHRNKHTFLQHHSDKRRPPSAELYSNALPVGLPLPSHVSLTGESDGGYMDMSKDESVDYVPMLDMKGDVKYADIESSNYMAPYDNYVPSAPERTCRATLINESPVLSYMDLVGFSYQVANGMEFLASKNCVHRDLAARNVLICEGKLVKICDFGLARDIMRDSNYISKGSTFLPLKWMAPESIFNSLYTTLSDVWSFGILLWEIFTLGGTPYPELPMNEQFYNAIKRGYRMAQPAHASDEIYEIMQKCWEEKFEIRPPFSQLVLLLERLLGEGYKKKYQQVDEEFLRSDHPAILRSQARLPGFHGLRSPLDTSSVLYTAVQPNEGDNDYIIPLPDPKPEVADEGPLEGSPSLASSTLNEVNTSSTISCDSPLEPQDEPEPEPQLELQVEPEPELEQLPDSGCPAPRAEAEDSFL
Chain of PAK2(h) (Q13177 whole entry): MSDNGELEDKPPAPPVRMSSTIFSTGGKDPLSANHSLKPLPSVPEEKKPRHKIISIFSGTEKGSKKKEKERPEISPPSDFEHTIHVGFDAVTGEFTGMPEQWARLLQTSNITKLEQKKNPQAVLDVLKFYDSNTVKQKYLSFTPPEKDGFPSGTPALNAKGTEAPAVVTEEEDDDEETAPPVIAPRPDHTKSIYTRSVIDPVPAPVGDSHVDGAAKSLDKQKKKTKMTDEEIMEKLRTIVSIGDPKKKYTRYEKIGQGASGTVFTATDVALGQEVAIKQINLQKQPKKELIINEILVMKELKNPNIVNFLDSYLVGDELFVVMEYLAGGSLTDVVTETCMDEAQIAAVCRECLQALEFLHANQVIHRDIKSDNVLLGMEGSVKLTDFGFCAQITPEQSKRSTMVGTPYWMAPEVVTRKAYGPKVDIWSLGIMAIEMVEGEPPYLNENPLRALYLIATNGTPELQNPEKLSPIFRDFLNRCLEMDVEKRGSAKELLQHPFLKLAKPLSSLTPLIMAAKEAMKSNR
T3 sequence (P19784 whole entry): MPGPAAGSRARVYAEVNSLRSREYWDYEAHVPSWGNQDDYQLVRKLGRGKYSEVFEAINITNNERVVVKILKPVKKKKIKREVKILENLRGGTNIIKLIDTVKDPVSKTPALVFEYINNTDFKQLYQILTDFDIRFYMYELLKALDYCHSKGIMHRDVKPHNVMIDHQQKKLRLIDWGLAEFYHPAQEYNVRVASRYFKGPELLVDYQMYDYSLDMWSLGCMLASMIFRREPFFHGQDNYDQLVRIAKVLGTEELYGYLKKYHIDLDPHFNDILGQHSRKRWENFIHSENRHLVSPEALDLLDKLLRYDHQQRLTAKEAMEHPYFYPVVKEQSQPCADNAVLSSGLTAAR
Chain of SRPK1(h) (Q96SB4 whole entry): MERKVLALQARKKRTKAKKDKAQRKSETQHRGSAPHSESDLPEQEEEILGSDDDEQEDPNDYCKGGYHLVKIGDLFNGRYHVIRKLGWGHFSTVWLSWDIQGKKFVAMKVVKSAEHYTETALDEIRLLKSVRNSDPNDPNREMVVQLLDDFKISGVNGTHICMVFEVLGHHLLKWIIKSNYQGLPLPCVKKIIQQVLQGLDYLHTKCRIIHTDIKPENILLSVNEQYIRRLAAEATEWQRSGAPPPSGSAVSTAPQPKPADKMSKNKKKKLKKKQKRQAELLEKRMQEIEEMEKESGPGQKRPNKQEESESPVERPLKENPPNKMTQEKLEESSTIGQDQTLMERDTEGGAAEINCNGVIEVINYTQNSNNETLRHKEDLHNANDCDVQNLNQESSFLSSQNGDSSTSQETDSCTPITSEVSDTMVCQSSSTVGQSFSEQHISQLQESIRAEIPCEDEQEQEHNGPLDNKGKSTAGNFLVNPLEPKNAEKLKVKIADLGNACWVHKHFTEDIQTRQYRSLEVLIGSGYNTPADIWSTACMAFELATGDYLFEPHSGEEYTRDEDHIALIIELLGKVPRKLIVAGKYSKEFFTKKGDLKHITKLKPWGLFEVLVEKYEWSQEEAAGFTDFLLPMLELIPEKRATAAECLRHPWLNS

For `CC(C)[C@H](Nc1ncnc2[nH]c(-c3cnn(C)c3C#N)cc12)c1ccc2c(n1)OCCO2` [ASAP-0010715], the remaining activity at 10 µM (CK1γ1(h); batch_name=ASAP-0010715-002) was 100%, the remaining activity at 10 µM (SRPK1(h); batch_name=ASAP-0010715-002) was 111% and the remaining activity at 10 µM (PDGFRβ(h); batch_name=ASAP-0010715-002) was 92%. The remaining activity at 10 µM (CK2α2(h); batch_name=ASAP-0010715-002) was 95%, the remaining activity at 10 µM (PKG1α(h); batch_name=ASAP-0010715-002) was 130% and the remaining activity at 10 µM (Pim-1(h); batch_name=ASAP-0010715-002) was 98%. It also gave a remaining activity at 10 µM (IRAK4(h); batch_name=ASAP-0010715-002) of 106%, a remaining activity at 10 µM (MEK1(h); batch_name=ASAP-0010715-002) of 97% and a remaining activity at 10 µM (Aurora-A(h); batch_name=ASAP-0010715-002) of 53%. For the same compound, the remaining activity at 10 µM (EphA5(h); batch_name=ASAP-0010715-002) was 102% and the remaining activity at 10 µM (PAK2(h); batch_name=ASAP-0010715-002) was 99%.
With `CC(C)[C@@H](Nc1ncnc2[nH]c(-c3cnn(C)c3C#N)cc12)c1ccc2c(n1)OCCO2` [ASAP-0010716] the remaining activity at 10 µM (CK1γ1(h); batch_name=ASAP-0010716-002) was 99%, the remaining activity at 10 µM (SRPK1(h); batch_name=ASAP-0010716-002) was 104% and the remaining activity at 10 µM (PDGFRβ(h); batch_name=ASAP-0010716-002) was 93%. The remaining activity at 10 µM (CK2α2(h); batch_name=ASAP-0010716-002) was 93%, the remaining activity at 10 µM (PKG1α(h); batch_name=ASAP-0010716-002) was 123% and the remaining activity at 10 µM (Pim-1(h); batch_name=ASAP-0010716-002) was 99%. The remaining activity at 10 µM (IRAK4(h); batch_name=ASAP-0010716-002) was 99%, the remaining activity at 10 µM (MEK1(h); batch_name=ASAP-0010716-002) was 103% and the remaining activity at 10 µM (Aurora-A(h); batch_name=ASAP-0010716-002) was 58%. It also gave a remaining activity at 10 µM (EphA5(h); batch_name=ASAP-0010716-002) of 90% and a remaining activity at 10 µM (PAK2(h); batch_name=ASAP-0010716-002) of 99%.
`CNCc1cc(-c2cc3c(N[C@@H](c4ccc5c(c4)S(=O)(=O)CCC5)C(C)C)ncnc3[nH]2)co1` [ASAP-0011176] showed a remaining activity at 10 µM (CK1γ1(h); batch_name=ASAP-0011176-002) of 99%, a remaining activity at 10 µM (SRPK1(h); batch_name=ASAP-0011176-002) of 101% and a remaining activity at 10 µM (PDGFRβ(h); batch_name=ASAP-0011176-002) of 89%. The remaining activity at 10 µM (CK2α2(h); batch_name=ASAP-0011176-002) was 90%, the remaining activity at 10 µM (PKG1α(h); batch_name=ASAP-0011176-002) was 115% and the remaining activity at 10 µM (Pim-1(h); batch_name=ASAP-0011176-002) was 93%. For the same compound, the remaining activity at 10 µM (IRAK4(h); batch_name=ASAP-0011176-002) was 100%, the remaining activity at 10 µM (MEK1(h); batch_name=ASAP-0011176-002) was 97% and the remaining activity at 10 µM (Aurora-A(h); batch_name=ASAP-0011176-002) was 73%. For the same compound, the remaining activity at 10 µM (EphA5(h); batch_name=ASAP-0011176-002) was 78% and the remaining activity at 10 µM (PAK2(h); batch_name=ASAP-0011176-002) was 94%.
In the case of `CC(C)C(Nc1ncnc2[nH]c(C(=O)NC3CCN(C)C3)cc12)c1ccc2c(c1)S(=O)(=O)CCC2` (centres unmarked) [ASAP-0011198], the remaining activity at 10 µM (CK1γ1(h); batch_name=ASAP-0011198-002) is reported as 100%, the remaining activity at 10 µM (SRPK1(h); batch_name=ASAP-0011198-002) is reported as 108% and the remaining activity at 10 µM (PDGFRβ(h); batch_name=ASAP-0011198-002) is reported as 83%. It also gave a remaining activity at 10 µM (CK2α2(h); batch_name=ASAP-0011198-002) of 98%, a remaining activity at 10 µM (PKG1α(h); batch_name=ASAP-0011198-002) of 116% and a remaining activity at 10 µM (Pim-1(h); batch_name=ASAP-0011198-002) of 97%. It also gave a remaining activity at 10 µM (IRAK4(h); batch_name=ASAP-0011198-002) of 105%, a remaining activity at 10 µM (MEK1(h); batch_name=ASAP-0011198-002) of 107% and a remaining activity at 10 µM (Aurora-A(h); batch_name=ASAP-0011198-002) of 97%. For the same compound, the remaining activity at 10 µM (EphA5(h); batch_name=ASAP-0011198-002) was 100% and the remaining activity at 10 µM (PAK2(h); batch_name=ASAP-0011198-002) was 99%.
